In patent US10676462B2, “Quinoline derivative” (ONO PHARMACEUTICAL CO., LTD., priority 2013, dated 2020):

Legend:
KDR = KDR (Homo sapiens, UniProt P35968); assay: Evaluation of kinase selectivity (in vitro test), KDR; assay type: biochemical; details: Axl selective inhibitory activity with respect to KDR, ratio of IC50 values
Method: Biological Example 3: Evaluation of Kinase Selectivity (In Vitro Test)
Similar to Biological Example 1, values of 50% inhibition rate (IC50 value) with respect to various kinases (KDR, DDR1, FLT4, and ROS) of the test compound were measured. The Axl selective inhibitory activity of the test compound with respect to kinases, for example, KDR, was calculated based on the above-mentioned ratio of the IC50 values. As the test compound, for the compound of the present invention, the compounds of Examples 5, 5(1), 17(2), and 23(2) were used, and for the comparative compounds, the compound of Example 5 (Comparative compound C) and the compound of Example 92 (Comparative compound D) described in Patent Literature 5, having the following structure, were used.

Ba/F3 Axl = target: T1, Ba/F3 Axl (Homo sapiens, UniProt P30530); assay: Proliferation suppression rate using mouse pro-B cell line (Ba/F3 Axl) stably expressing Axl; assay type: cell-based; details: Ba/F3 Axl cells, 48 hours, CellTiter-Glo; read-out: IC50 value, proliferation suppression of Ba/F3 Axl
T1 sequence (P30530 1-894): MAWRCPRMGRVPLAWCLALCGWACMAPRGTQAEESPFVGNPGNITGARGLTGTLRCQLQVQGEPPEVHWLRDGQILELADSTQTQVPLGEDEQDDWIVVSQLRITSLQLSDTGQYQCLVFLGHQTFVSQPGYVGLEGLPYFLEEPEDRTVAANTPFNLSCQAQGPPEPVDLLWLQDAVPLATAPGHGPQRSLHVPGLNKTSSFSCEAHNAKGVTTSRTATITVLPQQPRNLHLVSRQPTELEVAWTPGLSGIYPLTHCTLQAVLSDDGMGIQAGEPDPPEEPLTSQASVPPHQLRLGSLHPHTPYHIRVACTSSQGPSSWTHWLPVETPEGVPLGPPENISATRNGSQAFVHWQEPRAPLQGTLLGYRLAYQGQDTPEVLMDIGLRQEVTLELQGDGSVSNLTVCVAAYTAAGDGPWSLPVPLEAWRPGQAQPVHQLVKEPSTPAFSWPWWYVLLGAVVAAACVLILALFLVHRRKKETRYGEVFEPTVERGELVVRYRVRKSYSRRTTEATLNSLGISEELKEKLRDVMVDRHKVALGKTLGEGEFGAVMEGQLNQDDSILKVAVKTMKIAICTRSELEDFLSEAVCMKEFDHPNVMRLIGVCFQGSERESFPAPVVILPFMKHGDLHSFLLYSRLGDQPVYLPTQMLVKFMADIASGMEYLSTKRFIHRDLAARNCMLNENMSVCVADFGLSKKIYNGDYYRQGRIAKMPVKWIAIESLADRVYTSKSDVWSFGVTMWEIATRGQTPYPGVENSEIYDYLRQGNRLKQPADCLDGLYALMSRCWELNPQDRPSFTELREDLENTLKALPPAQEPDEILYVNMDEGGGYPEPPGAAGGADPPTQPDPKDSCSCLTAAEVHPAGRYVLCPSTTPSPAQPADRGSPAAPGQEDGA
Method: Biological Example 2: Measurement of Proliferation Suppression Rate by Using Mouse Pro-B Cell Line (Ba/F3 Axl) Stably Expressing Axl
A 0.1 mmol/L DMSO solution of the test compound was dispensed into a 96-well plate, and a 3-fold dilution series was prepared using DMSO. DMSO solutions of test compounds, having various concentrations, were further 500-fold diluted with a RPMI1640 medium (containing 10% HI-FBS, 1% penicillin) and a diluted solution of the test compound having […] with respect to the final concentration was prepared. In each well of the 96-well plate (BD Biosciences) for measurement, 50 μL of a RPMI medium was added to the Blank group, 50 μL of a RPMI medium containing 0.2% DMSO was added to the medium group, and 50 μL of the diluted solution of the test compound was added to the test compound group, respectively. Ba/F3 Axl was diluted with a medium to have a density of 2×10^5 cells/mL to prepare a cell suspension. In each well of the 96-well plate for measurement, 50 μL each of the RPMI medium was added to the Blank group, and 50 μL each of the cell suspension to the medium group and the test compound group, respectively, and the groups were stood still at 37° C. at 5% CO2 for 48 hours. After standing still, Relative Light Unit (RLU) was measured by using CELLTITER-GLO (registered trademark) LUMINESCENT CELL VIABILITY ASSAY (Promega). The measurement was carried out according to the attached instruction. To each well, 100 μL each of light-emitting solution was added. The plate was stirred at room temperature for 3 min and then stool still at room temperature with light shielded for 10 min, and RLU was measured by using Microplate Reader (SpectraMax M5e, Molecular Devices). The average values of RLU of the Blank group and the medium group were respectively calculated, and the proliferation suppression rate of the test compound group was calculated. Proliferation suppression rate (%)={1−(RLU of test compound group−A)/(B−A)}×100 [Math. 2] A: average value of RLU of Blank group B: average value of RLU of medium group
A value of 50% inhibition rate (IC50 value) of the test compound was calculated from the inhibition curve based on the inhibition rate in each concentration of the test compound.

Sequence of KDR (P35968 20-1356): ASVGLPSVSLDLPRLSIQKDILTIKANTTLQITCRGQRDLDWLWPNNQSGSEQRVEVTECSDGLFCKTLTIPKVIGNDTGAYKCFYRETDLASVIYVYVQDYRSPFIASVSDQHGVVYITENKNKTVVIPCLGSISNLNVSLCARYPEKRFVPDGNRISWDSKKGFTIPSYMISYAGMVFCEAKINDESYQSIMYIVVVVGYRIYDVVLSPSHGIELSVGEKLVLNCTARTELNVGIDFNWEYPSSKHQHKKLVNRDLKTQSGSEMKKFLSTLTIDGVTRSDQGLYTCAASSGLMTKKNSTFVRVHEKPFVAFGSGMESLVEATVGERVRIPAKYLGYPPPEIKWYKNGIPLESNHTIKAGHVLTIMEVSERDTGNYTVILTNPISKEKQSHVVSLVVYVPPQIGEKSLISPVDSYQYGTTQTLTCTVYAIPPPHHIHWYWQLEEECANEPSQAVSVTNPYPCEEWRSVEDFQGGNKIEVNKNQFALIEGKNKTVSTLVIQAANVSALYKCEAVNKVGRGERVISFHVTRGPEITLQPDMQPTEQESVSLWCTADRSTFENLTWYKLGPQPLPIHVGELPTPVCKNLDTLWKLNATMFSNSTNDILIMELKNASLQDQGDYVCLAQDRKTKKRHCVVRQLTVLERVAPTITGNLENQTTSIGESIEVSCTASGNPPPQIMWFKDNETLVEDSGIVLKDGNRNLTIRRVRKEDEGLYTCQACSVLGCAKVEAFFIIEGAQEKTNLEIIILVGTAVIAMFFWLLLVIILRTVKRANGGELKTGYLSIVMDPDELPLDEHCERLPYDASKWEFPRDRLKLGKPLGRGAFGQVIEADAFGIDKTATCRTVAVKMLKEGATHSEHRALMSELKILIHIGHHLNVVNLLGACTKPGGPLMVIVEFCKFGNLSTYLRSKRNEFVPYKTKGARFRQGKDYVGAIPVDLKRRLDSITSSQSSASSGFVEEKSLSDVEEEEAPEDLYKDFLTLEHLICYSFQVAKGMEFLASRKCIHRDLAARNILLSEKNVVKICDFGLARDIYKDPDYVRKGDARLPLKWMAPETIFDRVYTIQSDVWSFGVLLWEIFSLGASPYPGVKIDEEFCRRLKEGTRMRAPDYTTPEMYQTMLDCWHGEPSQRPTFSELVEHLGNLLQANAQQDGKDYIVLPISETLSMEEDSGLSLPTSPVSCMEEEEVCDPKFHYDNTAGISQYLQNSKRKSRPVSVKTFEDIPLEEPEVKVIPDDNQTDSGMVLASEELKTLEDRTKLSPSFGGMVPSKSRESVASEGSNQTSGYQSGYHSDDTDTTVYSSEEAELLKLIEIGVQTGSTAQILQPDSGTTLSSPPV

KDR [IC50]/Axl [IC50] (KDR) | GI50 (Ba/F3 Axl) [nM] | SMILES
about 1800 times | 0.8 | COc1cc2nccc(Oc3ccc(NC(=O)c4cc5c(n(-c6ccccc6)c4=O)CC(C)(C)CC5=O)nc3)c2cc1OC [Example 5(1), N-{5-[(6,7-dimethoxy-4-quinolinyl)oxy]-2-pyridinyl}-7,7-dimethyl-2,5-dioxo-1-phenyl-1,2,5,6,7,8-hexahydro-3-quinolinecarboxamide]
about 650 times | 1.2 | O=C1CCCc2c1cc(C(=O)Nc1ccc(Oc3ccnc4cc(OCCCN5CCOCC5)ccc34)cn1)c(=O)n2-c1ccccc1 [Example 17(2), N-[5-({7-[3-(4-morpholinyl)propoxy]-4-quinolinyl}oxy)-2-pyridinyl]2,5-dioxo-1-phenyl-1,2,5,6,7,8-hexahydro-3-quinolinecarboxamide]
about 520 times | 1.2 | COc1cc2nccc(Oc3ccc(NC(=O)c4cc5c(n(-c6ccccc6)c4=O)CCCC5=O)c(C)c3)c2cc1OC [Example 23(2), N-{4-[(6,7-dimethoxy-4-quinolinyl)oxy]-2-methylphenyl}-2,5-dioxo-1-phenyl-1,2,5,6,7,8-hexahydro-3-quinolinecarboxamide]

SMILES | KDR [IC50]/Axl [IC50] (KDR) | GI50 (Ba/F3 Axl) [nM]
COc1cc2nccc(Oc3ccc(NC(=O)c4cc5c(n(-c6ccccc6)c4=O)CCCC5=O)nc3)c2cc1OC [Example 5, N-{5-[(6,7-dimethoxy-4-quinolinyl)oxy]-2-pyridinyl}-2,5-dioxo-1-phenyl-1,2,5,6,7,8-hexahydro-3-quinolinecarboxamide] | about 900 times | 0.7
